According to publication PMC10731459, “A SARS-CoV-2 NSP7 homolog of a Treg epitope suppresses CD4+ and CD8+ T cell memory responses” (Frontiers in Immunology, 2023):
Like-named read-outs stand apart in the source and are kept apart here. Where no end group is shown, it is not given here.

Tests used:
[1] = target: T1, HLA-DRB1*01:01 (Homo sapiens, UniProt P01903+P01911, A100R/D57E/F55L/F60I/F76Y/I96L/L162R/M171V/P40L/Q125E/R42F/V115G/Y59C); test: HLA binding assay, DRB1*01:01
T1 construct: purchased Benaroya Research Institute, Seattle, Washington

[2] = target: T2, HLA-DRB1*03:01 (Homo sapiens, UniProt P01903+P01911, A100K/A102G/A103R/A169T/F55Y/I96L/K41T/L162R/M171V/P40S/Q125H/Q178H/Q39Y/R42S/S66N/T106N/T262R/W38E/Y61H); test: HLA binding assay, DRB1*03:01
T2 construct: purchased Benaroya Research Institute, Seattle, Washington

[3] = target: T3, HLA-DRB1*04:01 (Homo sapiens, UniProt P01903+P01911, A100K/A169T/F76Y/I96L/K127E/L162R/M171V/N62H/P40V/Q125Y/R42H/S133A/S149N/S66Y/V115G/V209L/W38E); test: HLA binding assay, DRB1*04:01
T3 construct: purchased Benaroya Research Institute, Seattle, Washington

[4] = target: HLA-DRB1*07:01 (Homo sapiens, UniProt P01903+P01911, A100R/A102G/A103Q/D57E/D86V/E43K/F76Y/K127E/L162R/M171V/P40G/Q125H/Q99D/R33Q/R42Y/R54Q/S133A/S66F/T210M/V115G/Y107V/Y59L/Y89S); test: HLA binding assay, DRB1*07:01
[5] = target: HLA-DRB1*09:01 (Homo sapiens, UniProt P01903+P01911, A100R/A103E/D57H/D86V/F55Y/F60I/F76Y/I96F/K127E/L162R/M171V/P40D/Q125H/Q99R/R33Q/R42F/S133A/S66N/T210M/V115G/W38K/Y107V/Y59G/Y89S); test: HLA binding assay, DRB1*09:01
[6] = target: HLA-DRB1*11:01 (Homo sapiens, UniProt P01903+P01911, A100R/A169T/A87E/I96F/K41T/L162R/M171V/P40S/Q125H/Q178H/Q39Y/Q99D/R42S/S66Y/T262R/V115G/W38E); test: HLA binding assay, DRB1*11:01
[7] = target: T4, HLA-DRB1*15:01 (Homo sapiens, UniProt P01903+P01911); test: biochemical; assay type: binding
T4 construct: purchased Benaroya Research Institute, Seattle, Washington

[8] = system: human CD4+ T cells; assay type: cell-based

Sequence of HLA-DRB1*11:01 (P01903 26-254 limits assumed, other chains not shown): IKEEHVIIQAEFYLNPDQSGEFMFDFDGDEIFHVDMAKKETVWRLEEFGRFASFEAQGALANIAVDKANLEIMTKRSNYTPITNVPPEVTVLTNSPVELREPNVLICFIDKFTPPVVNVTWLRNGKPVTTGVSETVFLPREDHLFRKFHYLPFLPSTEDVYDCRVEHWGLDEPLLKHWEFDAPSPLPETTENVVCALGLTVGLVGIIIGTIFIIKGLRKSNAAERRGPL

EKMVSLLSVLLSM [NSP7-289]
IC50 ([1]; read-out: HLA-DRB1 (IC50) *0101): 270 nM | IC50 ([2]; read-out: HLA-DRB1 (IC50) *0301): 31000 nM | IC50 ([3]; read-out: HLA-DRB1 (IC50) *0401): 28800 nM | IC50 ([4]; read-out: HLA-DRB1 (IC50) *0701): 2680 nM | IC50 ([5]; read-out: HLA-DRB1 (IC50) *0901): 7790 nM | IC50 ([6]; read-out: HLA-DRB1 (IC50) *1101): 3240 nM | IC50 ([7]; read-out: HLA-DRB1 (IC50) *1501): 200 nM

KSTYRVVSVLTVLHQD-NH2 [Tregitope 289z]
IC50 [1]: 160 nM | IC50 [2]: 8990 nM | IC50 [3]: 650 nM | IC50 [4]: 200 nM | IC50 [5]: 220 nM | IC50 [6]: 480 nM | IC50 [7]: 2520 nM

TT: TT (Astarte Biologics, cat no. 1002), stimulating antigen
increase of CD4+ T cell proliferation by TT stimulation [8]: roughly 20 fold
